Results from publication PMC4107924, “Structure and function study of the complex that synthesizes S-adenosylmethionine” (IUCrJ, 2014).
Blank lines part the entries; values can stand above or below the molecule they belong to.

Columns and labels:
Format in all cases: binding
MAT(α2)4(βV2)2 [1] = target: T1, MAT(α2)4(βV2)2 (Homo sapiens, UniProt P31153); experiment: X-ray crystal structure, […] Å; conditions: crystal co-crystallized and soaked with ATP only; ADO and PO4 at active site; Mg
T1 construct: gene MAT2A; recombinant in E. coli BL21(DE3), assembled in vitro; His tags cut (TEV for MATα2, thrombin for MATβV2); 258 kDa, 4:2 complex; with Methionine adenosyltransferase 2 subunit beta
T1 sequence (P31153 whole entry): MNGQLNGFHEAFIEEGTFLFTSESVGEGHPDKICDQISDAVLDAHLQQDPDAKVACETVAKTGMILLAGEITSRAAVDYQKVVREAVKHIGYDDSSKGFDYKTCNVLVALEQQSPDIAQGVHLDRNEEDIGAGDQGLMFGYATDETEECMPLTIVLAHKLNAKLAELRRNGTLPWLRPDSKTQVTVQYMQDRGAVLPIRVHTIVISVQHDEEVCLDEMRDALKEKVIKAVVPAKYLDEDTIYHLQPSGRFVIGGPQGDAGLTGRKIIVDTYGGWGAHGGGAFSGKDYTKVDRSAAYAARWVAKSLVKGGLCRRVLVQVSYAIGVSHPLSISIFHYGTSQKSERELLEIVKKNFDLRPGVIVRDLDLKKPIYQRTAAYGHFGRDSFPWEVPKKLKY
T1 sequence (Q9NZL9 21-334 partner limits assumed): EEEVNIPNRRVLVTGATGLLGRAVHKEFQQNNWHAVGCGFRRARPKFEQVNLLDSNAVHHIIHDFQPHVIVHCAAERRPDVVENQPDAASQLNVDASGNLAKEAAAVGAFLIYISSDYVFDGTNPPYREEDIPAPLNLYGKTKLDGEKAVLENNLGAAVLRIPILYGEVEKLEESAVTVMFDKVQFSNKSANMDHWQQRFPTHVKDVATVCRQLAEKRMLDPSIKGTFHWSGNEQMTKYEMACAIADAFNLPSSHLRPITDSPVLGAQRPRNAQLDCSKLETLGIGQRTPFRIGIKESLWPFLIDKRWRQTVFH

MAT(α2)4(βV2)2 [2] = target: T1, MAT(α2)4(βV2)2; experiment: X-ray crystal structure, […] Å; conditions: crystal co-crystallized and soaked with AMPPNP and methionine; SAMe also bound; Mg
MAT(α2)4(βV2)2 [3] = target: T1, MAT(α2)4(βV2)2; experiment: X-ray crystal structure, […] Å; conditions: active site at MATα2 dimer interface; Mg; two of four sites occupied; SAMe also in 4ndn
MATβV2 = target: T2, MATβV2 (Homo sapiens, UniProt Q9NZL9); experiment: ITC; conditions: read-out: NADP → MATβV2
T2 construct: gene MAT2B; recombinant in E. coli BL21(DE3), pET-28a(+); His tag cut with thrombin; free subunit
T2 sequence (Q9NZL9 1-323 isoform Q9NZL9-2): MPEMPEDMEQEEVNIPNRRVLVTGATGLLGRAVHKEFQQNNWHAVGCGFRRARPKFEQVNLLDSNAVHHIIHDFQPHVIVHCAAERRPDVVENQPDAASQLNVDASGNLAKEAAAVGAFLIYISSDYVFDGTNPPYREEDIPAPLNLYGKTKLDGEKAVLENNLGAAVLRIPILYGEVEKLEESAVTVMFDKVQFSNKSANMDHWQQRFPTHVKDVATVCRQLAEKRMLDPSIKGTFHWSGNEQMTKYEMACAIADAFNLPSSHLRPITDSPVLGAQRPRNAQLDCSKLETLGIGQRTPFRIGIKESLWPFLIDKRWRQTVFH

MATβV1 = target: T3, MATβV1 (Homo sapiens, UniProt Q9NZL9); experiment: ITC; conditions: read-out: NADP → MATβV1
T3 construct: gene MAT2B; recombinant in E. coli BL21(HC41), HIS-parallel vector; His tag cut with TEV protease; free subunit
T3 sequence (Q9NZL9 whole entry): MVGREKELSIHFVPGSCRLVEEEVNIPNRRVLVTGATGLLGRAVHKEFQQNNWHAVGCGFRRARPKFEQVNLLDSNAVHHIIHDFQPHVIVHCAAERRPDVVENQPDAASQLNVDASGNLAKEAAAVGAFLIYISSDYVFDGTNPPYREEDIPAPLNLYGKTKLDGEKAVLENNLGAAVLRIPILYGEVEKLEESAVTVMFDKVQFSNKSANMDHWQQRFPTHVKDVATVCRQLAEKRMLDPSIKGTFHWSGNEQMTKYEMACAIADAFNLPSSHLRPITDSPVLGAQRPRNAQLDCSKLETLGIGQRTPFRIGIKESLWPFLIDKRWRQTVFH

Compound: Nc1ncnc2c1ncn2[C@@H]1O[C@H](CO)[C@@H](O)[C@H]1O [adenosine]
X-ray crystal structure, 3.3 Å (MAT(α2)4(βV2)2 [1]): shows adenosine molecule (ADO) and PO4 at the active site

Compound: O=P(O)(O)NP(=O)(O)OP(=O)(O)O [PPNP]
X-ray crystal structure, 2.35 Å (MAT(α2)4(βV2)2 [2]): Crystal co-crystallized and soaked with AMPPNP and methionine shows SAMe and PPNP

Compound: C[S+](CC[C@H](N)C(=O)O)C[C@H]1O[C@@H](n2cnc3c(N)ncnc32)[C@H](O)[C@@H]1O (some centres unmarked) [SAMe]
X-ray crystal structure, 2.6 Å (MAT(α2)4(βV2)2 [3]): the presence of SAMe, adenosine (ADO) or PPNP

Kd (MATβV2): 8.93 µM | Kd (MATβV1): 8.55 µM
Compound: NC(=O)c1ccc[n+]([C@@H]2O[C@H](COP(=O)(O)OP(=O)(O)OC[C@H]3O[C@@H](n4cnc5c(N)ncnc54)[C@H](OP(=O)(O)O)[C@@H]3O)[C@@H](O)[C@H]2O)c1 [NADP]
